Experimental data as given in patent US20230131535A1, “ARYLMETHYLENE AROMATIC COMPOUNDS AS Kv1.3 POTASSIUM SHAKER CHANNEL BLOCKERS” (D. E. Shaw Research, LLC, priority 2019, published 2023).

Target: T1, Kv1.3 potassium channel (Homo sapiens, UniProt P22001)
T1 construct: expressed in transfected cells
Experiment: Kv1.3 potassium channel blocker activity, automated whole-cell patch clamp (Patchliner)
Format: cell-based
Conditions: Table 6; CHO-K1 cells stably expressing Kv1.3; whole cell current, pulses -90 mV to +40 mV; read-out: Kv1.3_IC50
Description: Example 67. Evaluation of Kv1.3 Potassium Channel Blocker Activities
The assay described below is used to evaluate the disclosed compound's activities as Kv1.3 potassium channel blockers.
CHO-K1 cells stably expressing Kv1.3 were grown in DMEM containing 10% heat-inactivated FBS, 1 mM Sodium Pyruvate, 2 mM L-Glutamine and G418 (500 μg/ml). Cells were grown in culture flasks at 37° C. in a 5% CO2-humidified incubator.
The cells were bathed in an extracellular solution containing 140 mM NaCl, 4 mM KCl, 2 mM CaCl2), 1 mM MgCl2, 5 mM Glucose, 10 mM HEPES; pH adjusted to 7.4 with NaOH; 295-305 mOsm. The internal solution contained 50 mM KCl, 10 mM NaCl, 60 mM KF, 20 mM EGTA, 10 mM HEPES; pH adjusted to 7.2 with KOH; 285 mOsm. All compounds were dissolved in DMSO at 30 mM. Compound stock solutions were freshly diluted with external solution to concentrations of 30 nM, 100 nM, 300 nM, 1 μM, 3 μM, 10 μM, 30 μM and 100 μM. The highest content of DMSO (0.3%) was present in 100 μM.
The currents were evoked by applying 100 ms depolarizing pulses from −90 mV (holding potential) to +40 mV were applied with 0.1 Hz frequency. Control (compound-free) and compound pulse trains for each compound concentration applied contained 20 pulses. 10 second breaks were used between pulse trains (see Table 4 below).
Whole cell current recordings and compound application were enabled by means of an automated patch clamp platform Patchliner (Nanion Technologies GmbH). EPC 10 patch clamp amplifier (HIEKA Elektronik Dr. Schulze GmbH) along with Patchmaster software (HIEKA Elektronik Dr. Schulze GmbH) was used for data acquisition. Data were sampled at 10 kHz without filtering. Passive leak currents were subtracted online using a P/4 procedure (HEKA Elektronik Dr. Schulze GmbH). Increasing compound concentrations were applied consecutively to the same cell without washouts in between. Total compound incubation time before the next pulse train was not longer than 10 seconds. Peak current inhibition was observed during compound equilibration.
AUC and peak values were obtained with Patchmaster (HEKA Elektronik Dr. Schulze GmbH). To determine IC50, the last single pulse in the pulse train corresponding to a given compound concentration was used. Obtained AUC and peak values in the presence of compound were normalized to control values in the absence of compound. Using Origin (OridinLab), IC50 was derived from data fit to Hill equation: Icompound/Icontrol=(100−A)/(1+([compound]/IC50)nH)+A, where IC50 value is the concentration at which current inhibition is half-maximal, [compound] is the applied compound concentration, A is the fraction of current that is not blocked and nH is the Hill coefficient.

T1 sequence (P22001 whole entry): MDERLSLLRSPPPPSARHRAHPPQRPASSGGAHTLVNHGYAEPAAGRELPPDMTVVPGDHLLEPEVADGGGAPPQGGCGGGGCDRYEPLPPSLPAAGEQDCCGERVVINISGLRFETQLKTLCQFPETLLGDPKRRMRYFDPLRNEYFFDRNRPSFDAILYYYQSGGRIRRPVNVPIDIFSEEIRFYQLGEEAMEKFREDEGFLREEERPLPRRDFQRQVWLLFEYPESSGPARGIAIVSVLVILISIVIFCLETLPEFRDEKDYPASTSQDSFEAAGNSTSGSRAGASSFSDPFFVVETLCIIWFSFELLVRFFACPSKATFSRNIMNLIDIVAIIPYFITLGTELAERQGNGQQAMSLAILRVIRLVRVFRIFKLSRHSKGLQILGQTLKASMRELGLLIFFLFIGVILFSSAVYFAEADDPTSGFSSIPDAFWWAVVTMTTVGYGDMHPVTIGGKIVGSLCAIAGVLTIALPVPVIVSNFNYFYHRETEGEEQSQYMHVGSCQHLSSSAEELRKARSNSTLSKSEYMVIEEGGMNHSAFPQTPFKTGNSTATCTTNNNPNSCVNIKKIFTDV

Compound	IC50 [µM]
Oc1ccc(Cl)c(Cl)c1C(O)c1ccncn1 (stereo not drawn) [Compound 55, 3,4-dichloro-2-[hydroxy(pyrimidin-4-yl)methyl]phenol]	< 10
CC(=O)NCc1cc(C(O)c2c(O)ccc(Cl)c2Cl)ccn1 (stereo not drawn) [Compound 33, N-([4-[(2,3-dichloro-6-hydroxyphenyl)(hydroxy)methyl]pyridin-2-yl]methyl)acetamide]	< 10
NC(=O)c1cc(Cc2c(O)ccc(Cl)c2Cl)ccn1 [Compound 24, 4-[(2,3-dichloro-6-hydroxyphenyl)methyl]pyridine-2-carboxamide]	< 10
Nc1ccc(C(N)c2cc(Cl)c(Cl)cc2O)cn1 (stereo not drawn) [Compound 12, 2-[amino(6-aminopyridin-3-yl)methyl]-4,5-dichlorophenol]	< 10
NC(c1ccccc1)c1cc(Cl)c(Cl)cc1O (stereo not drawn) [Compound 5, 2-[amino(phenyl)methyl]-4,5-dichlorophenol]	< 30
O=C(NC(c1ccncc1)c1c(O)ccc(Cl)c1Cl)c1cn[nH]c1 (stereo not drawn) [Compound 57, N-[(2,3-dichloro-6-hydroxyphenyl)(pyridin-4-yl)methyl]-1H-pyrazole-4-carboxamide]	< 30
Oc1ccc(Cl)c(Cl)c1C(O)c1cnccn1 (stereo not drawn) [Compound 54, 3,4-dichloro-2-[hydroxy(pyrazin-2-yl)methyl]phenol]	< 10
Oc1ccc(Cl)c(Cl)c1C(O)c1ccc2cc[nH]c2c1 (stereo not drawn) [Compound 48, 3,4-dichloro-2-[hydroxy(1H-indol-6-yl)methyl]phenol]	< 10
NC(=O)c1cc(C(O)c2c(O)ccc(Cl)c2Cl)ccn1 (stereo not drawn) [Compound 23, 4-[(2,3-dichloro-6-hydroxyphenyl)(hydroxy)methyl]pyridine-2-carboxamide]	< 10
Oc1ccc(Cl)c(Cl)c1C(O)c1cn[nH]c1 (stereo not drawn) [Compound 56, 3,4-dichloro-2-[hydroxy(1H-pyrazol-4-yl)methyl]phenol]	< 10
Oc1ccc(Cl)c(Cl)c1C(O)c1c[nH]c2ccccc12 (stereo not drawn) [Compound 59, 3,4-dichloro-2-[hydroxy(1H-indol-3-yl)methyl]phenol]	< 30
NC(=O)c1cnccc1Cc1cc(Cl)c(Cl)cc1O [Compound 4, 4-[(4,5-dichloro-2-hydroxyphenyl)methyl]pyridine-3-carboxamide]	< 10
CC(=O)NC(c1ccncc1)c1cc(Cl)c(Cl)cc1O (stereo not drawn) [Compound 19, N-[(4,5-dichloro-2-hydroxyphenyl)(pyridin-4-yl)methyl]acetamide]	< 10
NC(c1ccc(=O)[nH]c1)c1cc(Cl)c(Cl)cc1O (stereo not drawn) [Compound 15, 5-[amino(4,5-dichloro-2-hydroxyphenyl)methyl]-1,2-dihydropyridin-2-one]	< 10
Nc1ccc(C(N)c2c(O)ccc(Cl)c2Cl)cn1 (stereo not drawn) [Compound 14, 2-[amino(6-aminopyridin-3-yl)methyl]-3,4-dichlorophenol]	< 10
CC(c1ccncc1)c1c(O)ccc(Cl)c1Cl (stereo not drawn) [Compound 25, 3,4-dichloro-2-[1-(pyridin-4-yl)ethyl]phenol]	< 10
Nc1cc(C(O)c2c(O)ccc(Cl)c2Cl)ccn1 (single isomer, unassigned) [Compound 44, 2-[(2-aminopyridin-4-yl)(hydroxy)methyl]-3,4-dichlorophenol]	< 30
NC(c1ccccc1)c1c(O)ccc(Cl)c1Cl (stereo not drawn) [Compound 3, 2-[amino(phenyl)methyl]-3,4-dichlorophenol]	< 30
NC(c1cn[nH]c1)c1cc(Cl)c(Cl)cc1O (stereo not drawn) [Compound 10, 2-[amino(1H-pyrazol-4-yl)methyl]-4,5-dichlorophenol]	< 10
Oc1ccc(Cl)c(Cl)c1C(O)c1ccc2[nH]ccc2c1 (stereo not drawn) [Compound 52, 3,4-dichloro-2-[hydroxy(1H-indol-5-yl)methyl]phenol]	< 30
O=C(c1ccncc1)c1c(O)ccc(Cl)c1Cl [Compound 61, 3,4-dichloro-2-(pyridine-4-carbonyl)phenol]	< 10
Oc1ccc(Cl)c(Cl)c1Cc1ccncc1 [Compound 22, 3,4-dichloro-2-[(pyridin-4-yl)methyl]phenol]	< 10
N#Cc1ccc(C(N)c2cc(Cl)c(Cl)cc2O)cc1 (stereo not drawn) [Compound 16, 4-[amino(4,5-dichloro-2-hydroxyphenyl)methyl]benzonitrile]	< 10
Cn1cc(C(O)c2c(O)ccc(Cl)c2Cl)ccc1=O (stereo not drawn) [Compound 60, 5-[(2,3-dichloro-6-hydroxyphenyl)(hydroxy)methyl]-1-methyl-1,2-dihydropyridin-2-one]	< 1

Continued, values first:

IC50 [µM]	Compound
< 30	COc1ccc(Cl)c(Cl)c1C(N)c1ccncc1 (stereo not drawn) [Compound 70, 1-(2,3-dichloro-6-methoxyphenyl)-1-(pyridin-4-yl)methanamine]
< 30	O=C(N[C@@H](c1ccncc1)c1c(O)ccc(Cl)c1Cl)[C@@H]1CCCN1 (single isomer, unassigned) [Compound 65]
< 30	Cn1cc(C(c2ccncc2)c2c(O)ccc(Cl)c2Cl)cn1 (stereo not drawn) [Compound 74, 3,4-dichloro-2-[(1-methyl-1H-pyrazol-4-yl)(pyridin-4-yl)methyl]phenol]
< 1	CN1CC(C(=O)NC(c2ccncc2)c2c(O)ccc(Cl)c2Cl)C1 (single isomer, unassigned) [Compound 72, N-[(2,3-dichloro-6-hydroxyphenyl)(pyridin-4-yl)methyl]-1-methylazetidine-3-carboxamide]
< 30	O=C(N[C@H](c1ccncc1)c1c(O)ccc(Cl)c1Cl)[C@H]1CCCN1 (single isomer, unassigned) [Compound 66]

Same assay, conditions: Table 7; CHO-K1 cells stably expressing Kv1.3; whole cell current, pulses -90 mV to +40 mV; read-out: Kv1.3_IC50

Compound	IC50 [µM]
C[C@H](NC(=O)C1CN(C(=O)CO)C1)c1c(O)ccc(Cl)c1Cl [Compound 88, N-[(1S)-1-(2,3-dichloro-6-hydroxyphenyl)ethyl]-1-(2-hydroxyacetyl) azetidine-3-carboxamide]	< 10
C[C@H](NC(=O)C1(O)CNC1)c1c(O)ccc(Cl)c1Cl [Compound 87]	< 10
C[C@@H](NC(=O)C1CNC1)c1c(O)ccc(Cl)c1Cl [Compound 77, N-[(1R)-1-(2,3-dichloro-6-hydroxyphenyl)ethyl]azetidine-3-carboxamide]	< 1
C[C@@H](NC(=O)[C@@H]1CCCNC1)c1c(O)ccc(Cl)c1Cl [Compound 79, (3R)-N-[(1R)-1-(2,3-dichloro-6-hydroxyphenyl)ethyl]piperidine-3-carboxamide]	< 10
C[C@H](NC(=O)[C@H](O)CO)c1c(O)ccc(Cl)c1Cl [Compound 84, (2R)-N-[(1S)-1-(2,3-dichloro-6-hydroxyphenyl)ethyl]-2,3-dihydroxypropan-amide]	< 10
C[C@H](NC(=O)C1CNC1)c1cc(Cl)c(Cl)cc1O [Compound 86, N-[(1S)-1-(4,5-dichloro-2-hydroxyphenyl)ethyl]azetidine-3-carboxamide]	< 10
Cc1cc(O)c(C(N)CNC(=O)CO)cc1Cl (stereo not drawn) [Compound 96, N-[2-amino-2-(5-chloro-2-hydroxy-4-methylphenyl)ethyl]-hydroxyacetamide]	< 10
Cc1cc(O)c([C@H](C)NC(=O)C2CNC2)cc1Cl [Compound 82, N-[(1S)-1-(5-chloro-2-hydroxy-4-methylphenyl)ethyl]azetidine-3-carboxamide]	< 10
Cc1cc(O)c(C(N)CC(=O)NC2CNC2)cc1Cl (stereo not drawn) [Compound 97, 3-amino-N-(azetidin-3-yl)-3-(5-chloro-2-hydroxy-4-methylphenyl)propenamide]	< 1
C[C@H](NC(=O)C1CCNCC1)c1c(O)ccc(Cl)c1Cl [Compound 90, N-[(1S)-1-(2,3-dichloro-6-hydroxyphenyl)ethyl]piperidine-4-carboxamide]	< 1
C[C@H](NC(=O)[C@H]1CCCNC1)c1c(O)ccc(Cl)c1Cl [Compound 80, (3S)-N-[(1S)-1-(2,3-dichloro-6-hydroxyphenyl)ethyl]piperidine-3-carboxamide]	< 10
CC(NC(=O)C1CNCCO1)c1c(O)ccc(Cl)c1Cl (stereo not drawn) [Compound 92, N-[1-(2,3-dichloro-6-hydroxyphenyl)ethyl]morpholine-2-carboxamide]	< 10
Cc1cc(O)c([C@@H](N)CNC(=O)C2CNC2)cc1Cl [Compound 95, N-[(2R)-2-amino-2-(5-chloro-2-hydroxy-4-methylphenyl)ethyl] azetidine-3-carboxamide]	< 10
